The source of these data is patent EP4682141A1, “TRICYCLIC COMPOUND” (ONO Pharmaceutical Co., Ltd., priority 2023, dated 2024).

Experiment [1] relates to rat 5/6 kidney-removed model. The experiment in a line: in vivo drug efficacy on renal damage in rat 5/6 kidney-removed model. Further details: species or system Jcl: Wistar (Wistar) rats. The note with it: after 8 weeks from the start of administration. From the text: The obtained urine sample was centrifuged, and the supernatant was subjected to measurement.
For experiment [2], the system named is diabetes model rat. Description: inhibitory effect on the amount of albumin excreted in urine in diabetes model rat. The experiment is classed as in vivo, SDT Fatty rats. As to conditions: urine collected for 24 hours, urine albumin/urine creatinine ratio. Here is the method:
Male SDT Fatty rats aged 6 weeks (CLEA Japan) were purchased and preliminarily bred for 1 week or more. Experiments were performed at 8 to 16 weeks of age. The animals were fed ad libitum with solid feed CRF-1 (Oriental Yeast) and watered ad libitum.
Animals were housed in metabolic cages 2 days before test substance administration, and urine was collected for 24 hours. On the day before administration of the test substance, urine albumin and urine creatinine were measured, and grouping was performed by a stratification randomization method based on the urine albumin/urine creatinine ratio (ACR) and the average value of body weights for each group.
The compounds (test substances) of Examples 9-5, 10, 11, 12, 25-7 and 32, and water for injection (Otsuka Pharmaceutical) as a vehicle were orally administered once at 5 mL/kg. The administration dose is described in Table 3.
For evaluation of the amount of albumin excreted in urine of each animal, a urine albumin/urine creatinine ratio (ACR) was measured. After administration of the test substance, the animals were housed in metabolic cages, and urine was collected for 24 hours. Each concentration of urine albumin and urine creatinine was measured using an automatic analyzer 7180 (Hitachi High-Tech), and ACR was calculated by dividing the urine albumin concentration by the urine creatinine concentration.

Experiment [3] concerns Alport syndrome model mice. Description: in vivo drug efficacy in Alport syndrome model mice. On the set-up: species or system COL4A5 homozygote knockout mice. The note with it: 16 weeks after the start of administration. Here is the method: The in vivo drug efficacy of the present compound on Alport syndrome was evaluated using COL4A5 (causative gene of Alport syndrome) knockout mice.
Male wild-type mice and female COL4A5 hetero knockout mice were naturally crossed to obtain offspring. Genotypes of the offspring were confirmed and male COL4A5 homozygote knockout mice were obtained.
The obtained animals were fed ad libitum with CE-2 (CLEA Japan), and watered ad libitum.
The mice were divided into groups using a statistical analysis system EXSUS10.0 so that the body weight and the urine albumin/urine creatinine value at the time of 6 weeks of age were almost uniform in each group.
The test substance and water for injection (Otsuka Pharmaceutical) as a vehicle were orally administered at 10 mL/kg once a day for 17 weeks.
The Control-3 group was orally administered water for injection at 10 mL/kg once a day for 17 weeks. In the Control-4 group, water for injection and an administration solution of irbesartan which is a renin angiotensin system inhibitor were mixed in equal amounts at 5 mL/kg each, and orally administered once a day for 17 weeks.
The administration dose is described in Table 11.
Blood collection was performed by cutting the tail vein of the mice a little with a razor and using a hematocrit capillary. Blood was centrifuged to obtain plasma. Urine was collected for about 16 hours in a metabolic cage for mouse under conditions in which a solid feed and water can be freely taken. The obtained urine sample was centrifuged, and the supernatant was subjected to measurement. Urine albumin (U-ALB) and urine creatinine (U-CRE) concentrations were measured by an automatic analyzer Hitachi 7180 (Hitachi High-Tech), and the creatinine concentration in plasma was measured using LabAssay Creatinine (Fujifilm Wako Shibayagi).

Consider `Cc1c(C(=O)O)ccc2c1O[C@H]1C[C@@H](O)[C@H](/C=C/C[C@@](C)(O)CCCC(F)(F)F)[C@H]1CC2` [Example 12, (1R,2R,3aS,10aR)-2-hydroxy-5-methyl-1-[(1E,4S)-8,8,8-trifluoro-4-hydroxy-4-methyl-1-octen-1-yl]-2,3,3a,9,10,10a-hexahydro-1H-benzo[b]cyclopenta[f]oxepine-6-carboxylic acid], for which the figures for the “Amount of albumin excreted in urine mean” value in experiment [1] (0.01 mg/kg orally once a day for 8 weeks) and in experiment [1] (0.03 mg/kg orally once a day for 8 weeks) were 66.09 mg/24 h and 44.16 mg/24 h, respectively. Also, the ACR mean in experiment [2] (0.01 mg/kg orally once) is recorded as 4602.3 µg/mg; in experiment [2] (0.03 mg/kg orally once), 3887.3 µg/mg. Also, the Plasma creatinine mean in experiment [3] (1 mg/kg orally once a day for 17 weeks, concomitant drug Irbesartan (50 mg/kg)) was 0.709 mg/dL; in experiment [3] (3 mg/kg orally once a day for 17 weeks, concomitant drug cell empty), 0.722 mg/dL.
For `CC(C)(c1ccccc1)C(O)/C=C/[C@H]1CC[C@@H]2Oc3c(ccc(C(=O)O)c3F)CC[C@@H]21` (stereo partly drawn) [Example 25-7, (1R,3aS,10aR)-5-fluoro-1-[(1E,3ξ)-3-hydroxy-4-methyl-4-phenyl-1-penten-1-yl]-2,3,3a,9,10,10a-hexahydro-1H-benzo[b]cyclopenta[f]oxepine-6-carboxylic acid], the ACR mean amounted to 3217.6 µg/mg in experiment [2] (0.003 mg/kg orally once) and 2331.6 µg/mg in experiment [2] (0.01 mg/kg orally once). For the same compound, the Plasma creatinine mean in experiment [3] (0.1 mg/kg orally once a day for 17 weeks, single agent) was determined as 0.758 mg/dL; in experiment [3] (0.3 mg/kg orally once a day for 17 weeks, single agent), 0.628 mg/dL.
